Values after ≈ are worked out from the molar mass of the structure shown.
Settings: not given

| Structure (SMILES) | solubility | logP |
| --- | --- | --- |
| CNC(=O)Oc1cccc2c1OC(C)(C)C2 | 1.45 mM (≈ 320 µg/mL) |  |
| CCCC(=NOCC)C1=C(O)CC(CC(C)SCC)CC1=O (stereo unspecified) |  | 4.38 |
| CC(Oc1ccc(Oc2ccc(C(F)(F)F)cn2)cc1)C(=O)O (stereo unspecified) |  | 3.18 |
| COc1cccc(OCCN(C)C)c1 |  | 1.69 |
| C=CC(=O)NCCCN(CCO)CCO |  | -0.6 |
| Clc1c(Cl)c(Cl)c2c(oc3c(Cl)c(Cl)c(Cl)c(Cl)c32)c1Cl |  | 8.6 |
| COc1ccc(S(=O)(=O)c2coc(S(N)(=O)=O)c2)cc1 |  | 1.17 |
| O=C1CC[C@@]2(O)[C@H]3Cc4ccc(O)c5c4[C@@]2(CCN3CC2CC2)[C@H]1O5 |  | 1.92 |
| CCCCN=C=S |  | 2.92 |
| Clc1ccc2c(ccc3ccccc32)c1 |  | 5.16 |
| Clc1ccc2ccccc2c1 |  | 3.9 |
| CS(=O)CCCOc1ccc([N+](=O)[O-])cc1 (stereo unspecified) |  | 0.93 |
| NS(=O)(=O)c1nn2c(=Nc3cccc(Cl)c3)snc2s1 |  | 3.5 |
| CCCCC(OC(Cc1ccccc1)C(=O)N1CCC(OCOC)CC1)C(=O)NC(CC1CCCCC1)C(O)CC(C(=O)NCCNc1noc(N)n1)C(C)C (stereo unspecified) |  | 4.5 |
| N[C@@H](Cc1ccc(O)c(O)c1)C(=O)OCCOc1ccccc1 |  | 1.51 |
| O=C(OCCO)c1ccccc1 |  | 1.12 |
| ClC=C1C2C(Cl)C(Cl)C(C2Cl)C1(CCl)CCl (stereo unspecified) |  | 5.35 |
| c1ccc2c(c1)oc1ccccc12 | 0.0184 mM (≈ 3.1 µg/mL) |  |
| O=c1ccn(C2OC(CO)C(O)C2O)c(=O)n1Cc1ccccc1 (stereo unspecified) |  | 0.33 |
| c1ccc2cc3c(cc2c1)-c1cccc2cccc-3c12 |  | 6.11 |
| O=C(CS(=O)(=O)c1ccccc1)c1ccc(Cl)cc1 |  | 2.69 |
| N=C(N)NN=Cc1ccc(Br)cc1 |  | 1.3 |
| C=Cc1cc(C)ccc1C |  | 4.16 |
| Cl.Cl.O=C1c2c(O)ccc(O)c2C(=O)c2c(NCCNCCO)ccc(NCCNCCO)c21 | 14.5 mM |  |

Same assay, conditions: 20 °C

| Structure (SMILES) | solubility |
| --- | --- |
| Oc1cc(O)c2ccccc2c1 | 11.2 mM (≈ 1800 µg/mL) |
| O=c1c(Cl)c(Cl)cnn1-c1ccccc1 | 0.415 mM (≈ 100 µg/mL) |
| CCC#CC(C)O (stereo unspecified) | 387 mM (≈ 38000 µg/mL) |
| C=COCC(C)C | 30 mM (≈ 3000 µg/mL) |
| CN(C)c1ccncc1 | 622 mM (≈ 76000 µg/mL) |
| CCOC(C)(C)C | 117 mM (≈ 12000 µg/mL) |
| CNC(=N)N | 24.4 mM (≈ 1780 µg/mL) |
| C=COC | 258 mM (≈ 15000 µg/mL) |
| C=CCN(CC=C)c1c(C)cc(OC(=O)NC)cc1C | 0.255 mM (≈ 70 µg/mL) |
| O=C1OC2(c3ccc(O)cc3Oc3cc(O)ccc32)c2ccccc21 | 0.15 mM (≈ 50 µg/mL) |

Same assay, conditions: 22 °C

| Structure (SMILES) | solubility |
| --- | --- |
| CC(C)Nc1nc(Cl)nc(NC2CC2)n1 | 0.303 mM (≈ 69 µg/mL) |

Same assay, conditions: 23.0 °C

| Structure (SMILES) | log10 OH rate constant (cm³/molecule/s) |
| --- | --- |
| O=C1C=CC(=O)O1 | -11.8 |
| CC1=CC[C@@H]2[C@H]3[C@@H](C(C)C)CC[C@]2(C)[C@@H]13 | -10 |
| CC(=O)CC(C)(C)O | -11.4 |

Same assay, conditions: 24.0 °C

| Structure (SMILES) | log10 OH rate constant (cm³/molecule/s) |
| --- | --- |
| Clc1ccccc1-c1ccccc1Cl | -11.7 |
| c1ccc2c(c1)sc1ccccc12 | -11.1 |

Same assay, conditions: 25 °C

| Structure (SMILES) | solubility |
| --- | --- |
| CCCCCCCCCCCCCCCCCO | 3.12e-05 mM (≈ 0.008 µg/mL) |
| Nc1ccc2c(c1)C(=O)c1ccccc1C2=O | 0.00073 mM (≈ 0.163 µg/mL) |
| CCCCCCO[N+](=O)[O-] | 0.747 mM (≈ 110 µg/mL) |
| C[Si](C)(C)O[Si](C)(C)O[Si](C)(C)C | 0.000144 mM (≈ 0.034 µg/mL) |
| O=C(O)Cc1ccc(O)cc1 | 399 mM (≈ 60700 µg/mL) |
| CCCC(C)Cl (stereo unspecified) | 3.2 mM (≈ 341 µg/mL) |
| OCCNc1ccccc1 | 335 mM (≈ 46000 µg/mL) |
| Clc1ccccc1-c1ccccc1Cl | 0.00829 mM (≈ 1.85 µg/mL) |
| C=C(C)C(=O)OCC | 47.3 mM (≈ 5400 µg/mL) |
| O=C(O)CCC1CCCC1 | 17 mM (≈ 2420 µg/mL) |
| Oc1ccc(Cl)c2cccnc12 | 0.106 mM (≈ 19 µg/mL) |
| COC(C)(C)CC(C)=O | 2150 mM (≈ 280000 µg/mL) |
| Cc1ccc2c(ccc3ccccc32)c1 | 0.00146 mM (≈ 0.28 µg/mL) |
| O=C(O)c1cccc(C(=O)O)n1 | 29.9 mM (≈ 5000 µg/mL) |
| CC(C)N(C(=O)SCC(Cl)=CCl)C(C)C | 0.0518 mM (≈ 14 µg/mL) |
| c1ccc(OCC2CO2)cc1 (stereo unspecified) | 16 mM (≈ 2400 µg/mL) |
| CCCCCCC(C)O (racemic) | 9.2 mM (≈ 1200 µg/mL) |
| CN/C(=N\C#N)NCCSCc1nc[nH]c1C | 41 mM (≈ 10300 µg/mL) |
| CCCN(CCC)c1c([N+](=O)[O-])cc(C(C)C)cc1[N+](=O)[O-] | 0.000339 mM (≈ 0.105 µg/mL) |
| Clc1c(Cl)c(Cl)c2c(oc3c(Cl)c(Cl)c(Cl)c(Cl)c32)c1Cl | 2.61e-09 mM (≈ 1.16e-06 µg/mL) |
| CC(C)CCO[N+](=O)[O-] | 3.3 mM (≈ 440 µg/mL) |
| Clc1ccc2ccccc2c1 | 0.0719 mM (≈ 11.7 µg/mL) |
| O=[N+]([O-])c1ccc2c3c(cccc13)CC2 | 0.00457 mM (≈ 0.91 µg/mL) |
| COC | 7660 mM (≈ 353000 µg/mL) |
| CC(C)C(O)C(C)(C)CO (stereo unspecified) | 130 mM (≈ 19000 µg/mL) |
| O=C(O)CC1CCCCC1 | 20.3 mM (≈ 2880 µg/mL) |
| ClC(Cl)=C(Cl)C(Cl)(Cl)Cl | 0.0684 mM (≈ 17 µg/mL) |

Same assay, conditions: 25.0 °C

| Structure (SMILES) | log10 OH rate constant (cm³/molecule/s) |
| --- | --- |
| FC(F)(F)C(F)(F)N(C(F)(F)C(F)(F)F)C(F)(F)C(F)(F)F | < -15.2 |
| FC(F)C(F)F | -14.2 |
| CCNc1nc(Cl)nc(NCC)n1 | -11 |
| FC(F)(F)CC(F)(F)F | -15 |
| O=CF | -14.4 |
| O=CC(F)(Cl)Cl | -11.9 |
| CCOC(=O)NC | -11.1 |
| COCC(C)OC (stereo unspecified) | -10.5 |
| FC(F)CC(F)(F)F | -14.1 |
| CCC(C)(C)OC | -11.3 |
| CCCCCC(C)=O | -10.9 |
| COc1ccc([N+](=O)[O-])cc1 | -11.6 |
| c1ccc2c(c1)oc1ccccc12 | -11.4 |

Same assay, conditions: 30 °C

| Structure (SMILES) | solubility |
| --- | --- |
| CNC(=O)Oc1cccc(C(C)C)c1 | 0.44 mM (≈ 85 µg/mL) |
